Data published in patent US8697641B2, “4-amino-4-oxobutanoyl peptide cyclic analogues, inhibitors of viral replication” (Achillion Pharmaceuticals, Inc., priority 2008, dated 2014).

These molecules were tested on Hepatitis C replicon (assay: HCV replicon assay (NPT ELISA readout) in Huh-7 replicon-containing cells). Details: Hepatitis C virus, 72 h; HCV replicon in Huh-7 cells, three days incubation.
Format: cell-based, Hepatitis C virus
Outline: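 Replication is measured as neomycin phosphotransferase level by captured ELISA after three days of compound exposure (typically 10 to 0.03 μM, 6 concentrations) at 37 °C. Cells are Huh-7 harbouring an HCV replicon with neo gene and NS3-NS5B; interferon alpha is the positive control.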

Structure (SMILES) | EC50
COc1ccc2c(O[C@@H]3C[C@H]4C(=O)N[C@]5(C(=O)NS(=O)(=O)C6CC6)C[C@H]5/C=C\CCCCC[C@H](CC(=O)N5CCCCC5)C(=O)N4C3)cc(-c3ccccn3)nc2c1Cl [Compound 90, (2R,6R,14aR,16aS,Z)-2-(8-chloro-7-methoxy-2-(pyridin-2-yl)quinolin-4-yloxy)-N-(cyclopropylsulfonyl)-5, 16-dioxo-6-(2-oxo-2-(piperidin-1-yl)ethyl)-1,2,3,5,6,7,8,9,10,11, 13a,14,14a,15,16,16a-hexadecahydrocyclopropa [e]pyrrolo[1,2-a][1,4] diazacyclopentadecine-14a-carboxamide] | < 1000 nM
COc1ccc2c(O[C@@H]3C[C@H]4C(=O)N[C@]5(C(=O)NS(=O)(=O)C6CC6)C[C@H]5/C=C\CCCCC[C@H](CC(=O)N5CC[C@@H](N)C5)C(=O)N4C3)cc(-c3ccccc3)nc2c1 [Compound 106, (2R,6R,14aR,16aS, Z)-6-(2-((R)-3-aminopyrrolidin-1-yl)-2-oxoethyl)-N-(cyclopropylsulfonyl)-2-(7-methoxy-2-phenylquinolin-4-yloxy)-5,16-dioxo-1,2,3,5,6,7,8,9,10,11, 13a,14,14a,15,16,16a-hexadecahydrocyclopropa [e]pyrrolo[1,2-a][1,4] diazacyclopentadecine-14a-carboxamide] | < 1000 nM
O=C(N[C@@H]1C[C@H]2C(=O)N[C@]3(C(=O)NS(=O)(=O)C4CC4)C[C@H]3/C=C\CCCCC[C@H](CC(=O)N3CCC(F)(F)CC3)C(=O)N2C1)c1cc(-c2ccccc2)nc2ccccc12 [Compound 79, (2R,6R,13aS, 14aR,16aS,Z)-N-(cyclopropylsulfonyl)-6-(2-(4,4-difluoropiperidin-1-yl)-2-oxoethyl)-5,16-dioxo-2-(2-phenylquinoline-4-carboxamido)-1,2,3,5,6,7,8,9,10,11, 13a,14,14a,15,16,16a-hexadecahydrocyclopropa [e]pyrrolo[1,2-a][1,4] diazacyclopentadecine-14a-carboxamide] | < 1000 nM
COc1ccc2c(O[C@@H]3C[C@H]4C(=O)N[C@]5(C(=O)NS(=O)(=O)C6CC6)C[C@H]5/C=C\CCCCC[C@H](CC(=O)N5CCCC(F)C5)C(=O)N4C3)cc(-c3ccccn3)nc2c1Cl (stereo partly drawn) [Compound 100, (2R,6R,14aR,16aS,Z)-2-(8-chloro-7-methoxy-2-(pyridin-2-yl)quinolin-4-yloxy)-N-(cyclopropylsulfonyl)-6-(2-(3-fluoropiperidin-1-yl)-2-oxoethyl)-5,16-dioxo-1,2,3,5,6,7,8,9,10,11, 13a,14,14a,15,16,16a-hexadecahydrocyclopropa [e]pyrrolo[1,2-a][1,4] diazacyclopentadecine-14a-carboxamide] | < 1000 nM
COc1ccc2c(O[C@@H]3C[C@H]4C(=O)N[C@]5(C(=O)NS(=O)(=O)C6CC6)C[C@H]5/C=C\CCCCC[C@H](CC(=O)N5CCC(C(F)(F)F)CC5)C(=O)N4C3)nccc2c1Cl [Compound 124] | < 1000 nM
CCOC(=O)[C@@]12C[C@H]1/C=C\CCCCC[C@H](CC(=O)OC(C)(C)C)C(=O)N1C[C@H](Oc3cc(-c4ccccc4)nc4cc(OC)ccc34)C[C@H]1C(=O)N2 [Compound 46, (2R,6R,13aS,14aR, 16aS,Z)-ethyl 6-(2-tert-butoxy-2-oxoethyl)-2-(7-methoxy-2-phenylquinolin-4-yloxy)-5,16-dioxo-1,2,3,5,6,7,8,9,10,11, 13a,14,14a,15,16,16a-hexadecahydrocyclopropa [e]pyrrolo[1,2-a][1,4] diazacyclopentadecine-14a-carboxylate] | > 10000 nM
COc1ccc2c(O[C@@H]3C[C@H]4C(=O)N[C@@](C)(C(=O)NS(=O)(=O)C5CC5)CCCCCCCC[C@H](CC(=O)N5CCCCC5)C(=O)N4C3)cc(-c3ccccc3)nc2c1 [Compound 54, (3R,12R,16R,17aS)-N-(cyclopropylsulfonyl)-16-(7-methoxy-2-phenylquinolin-4-yloxy)-3-methyl-1,13-dioxo-12-(2-oxo-2-(piperidin-1-yl)ethyl)hexadecahydro-1H-pyrrolo[1,2-a][1,4] diazacyclopentadecine-3-carboxamide] | < 1000 nM
COc1ccc2c(O[C@@H]3C[C@H]4C(=O)N[C@]5(C(=O)NS(=O)(=O)C6CC6)C[C@H]5/C=C\CCCCC[C@H](CC(=O)N5CCOCC5)C(=O)N4C3)cc(-c3ccccc3)nc2c1 [Compound 60, (2R,6R,13aS, 14aR,16aS,Z)-N-(cyclopropylsulfonyl)-2-(7-methoxy-2-phenylquinolin-4-yloxy)-6-(2-morpholino-2-oxoethyl)-5,16-dioxo-1,2,3,5,6,7,8,9,10,11, 13a,14,14a,15,16,16a-hexadecahydrocyclopropa [e]pyrrolo[1,2-a][1,4] diazacyclopentadecine-14a-carboxamide] | < 1000 nM
COc1ccc2c(O[C@@H]3C[C@H]4C(=O)N[C@]5(C(=O)NS(=O)(=O)C6CC6)C[C@H]5/C=C\CCCCC[C@H](CC(=O)N5CCC(F)(F)C5)C(=O)N4C3)cc(-c3ccccn3)nc2c1Cl [Compound 94, (2R,6R,14aR,16aS,Z)-2-(8-chloro-7-methoxy-2-(pyridin-2-yl)quinolin-4-yloxy)-N-(cyclopropylsulfonyl)-6-(2-(3,3-difluoropyrrolidin-1-yl)-2-oxoethyl)-5,16-dioxo-1,2,3,5,6,7,8,9,10,11, 13a,14,14a,15,16,16a-hexadecahydrocyclopropa [e]pyrrolo[1,2-a][1,4] diazacyclopentadecine-14a-carboxamide] | < 1000 nM
COc1ccc2c(O[C@@H]3C[C@H]4C(=O)N[C@]5(C(=O)NS(=O)(=O)C6CC6)C[C@H]5/C=C\CCCCC[C@H](CC(=O)N5CCCC(F)(F)C5)C(=O)N4C3)cc(-c3nc(C(C)C)cs3)nc2c1C [Compound 128, (2R,6R,14aR,16aS,Z)-N-(cyclopropylsulfonyl)-6-(2-(3,3-difluoropiperidin-1-yl)-2-oxoethyl)-2-(2-(4-isopropylthiazol-2-yl)-7-methoxy-8-methylquinolin-4-yloxy)-5,16-dioxo-1,2,3,5,6,7,8,9,10,11, 13a,14,14a,15,16,16a-hexadecahydrocyclopropa [e]pyrrolo[1,2-a][1,4] diazacyclopentadecine-14a-carboxamide] | < 1000 nM
COc1ccc2c(O[C@@H]3C[C@H]4C(=O)N[C@]5(C(=O)NS(=O)(=O)C6CC6)C[C@H]5/C=C\CCCCC[C@H](CC(=O)N5CC6CC5CO6)C(=O)N4C3)cc(-c3ccccc3)nc2c1 (stereo partly drawn) [Compound 77, (2R,6R,13aS,14aR, 16aS,Z)-6-(2-(2-oxa-5-azabicyclo[2.2.1]heptan-5-yl)-2-oxoethyl)-N-(cyclopropylsulfonyl)-2-(7-methoxy-2-phenylquinolin-4-yloxy)-5,16-dioxo-1,2,3,5,6,7,8,9,10,11, 13a,14,14a,15,16,16a-hexadecahydrocyclopropa [e]pyrrolo[1,2-a][1,4] diazacyclopentadecine-14a-carboxamide] | < 1000 nM
COc1ccc2c(O[C@@H]3C[C@H]4C(=O)N[C@]5(C(=O)NS(=O)(=O)C6CC6)C[C@H]5/C=C\CCCCC[C@H](CC(=O)N5CCC(C(F)(F)F)CC5)C(=O)N4C3)cc(-c3nc(C(C)C)cs3)nc2c1 [Compound 119, (2R,6R,14aR,16aS,Z)-N-(cyclopropylsulfonyl)-2-(2-(4-isopropylthiazol-2-yl)-7-methoxyquinolin-4-yloxy)-5,16-dioxo-6-(2-oxo-2-(4-(trifluoromethyl)piperidin-1-yl)ethyl)-1,2,3,5,6,7,8,9,10,11, 13a,14,14a,15,16,16a-hexadecahydrocyclopropa [e]pyrrolo[1,2-a][1,4] diazacyclopentadecine-14a-carboxamide] | < 1000 nM
COc1ccc2c(O[C@@H]3C[C@H]4C(=O)N[C@]5(C(=O)NS(=O)(=O)C6CC6)C[C@H]5/C=C\CCCCC[C@H](CC(=O)N5CCCC(F)(F)C5)C(=O)N4C3)cc(-c3csc(C(C)C)n3)nc2c1C [Compound 133, (2R,6R,14aR,16aS,Z)-N-(cyclopropylsulfonyl)-6-(2-(3,3-difluoropiperidin-1-yl)-2-oxoethyl)-2-(2-(2-isopropylthiazol-4-yl)-7-methoxy-8-methylquinolin-4-yloxy)-5,16-dioxo-1,2,3,5,6,7,8,9,10,11, 13a,14,14a,15,16,16a-hexadecahydrocyclopropa [e]pyrrolo[1,2-a][1,4] diazacyclopentadecine-14a-carboxamide] | < 1000 nM
COc1ccc2c(O[C@@H]3C[C@H]4C(=O)N[C@]5(C(=O)NS(=O)(=O)C6CC6)C[C@H]5/C=C\CCCCC[C@H](CC(=O)N5CCC(F)CC5)C(=O)N4C3)cc(-c3ccccc3)nc2c1 [Compound 70, (2R,6R,13aS, 14aR,16aS,Z)-N-(cyclopropylsulfonyl)-6-(2-(4-fluoropiperidin-1-yl)-2-oxoethyl)-2-(7-methoxy-2-phenylquinolin-4-yloxy)-5,16-dioxo-1,2,3,5,6,7,8,9,10,11, 13a,14,14a,15,16,16a-hexadecahydrocyclopropa [e]pyrrolo[1,2-a][1,4] diazacyclopentadecine-14a-carboxamide] | < 1000 nM
O=C1N[C@]2(C(=O)NS(=O)(=O)C3CC3)C[C@H]2/C=C\CCCCC[C@H](CC(=O)N2CCC(C(F)(F)F)CC2)C(=O)N2C[C@H](Oc3cc(-c4ccccn4)nc4c5c(ccc34)OCC5)C[C@@H]12 [Compound 83, (2R,6R,14aR,16aS,Z)-N-(cyclopropylsulfonyl)-5,16-dioxo-6-(2-oxo-2-(4-(trifluoromethyl)piperidin-1-yl)ethyl)-2-(2-(pyridin-2-yl)-8,9-dihydrofuro[2,3-h]quinolin-4-yloxy)-1,2,3,5,6,7,8,9,10,11, 13a,14,14a,15,16,16a-hexadecahydrocyclopropa [e]pyrrolo[1,2-a][1,4] diazacyclopentadecine-14a-carboxamide] | < 1000 nM
O=C1N[C@]2(C(=O)NS(=O)(=O)C3CC3)C[C@H]2/C=C\CCCCC[C@H](CC(=O)N2CCCC(F)(F)C2)C(=O)N2C[C@H](OC(=O)N3CCc4ccccc4C3)C[C@@H]12 [Compound 113, (2R,6R,14aR, 16aS,Z)-14a-(cyclopropylsulfonyl-carbamoyl)-6-(2-(3,3-difluoropiperidin-1-yl)-2-oxoethyl)-5,16-dioxo-1,2,3,5,6,7,8,9,10,11, 13a,14,14a,15,16,16a-hexadecahydrocyclopropa [e]pyrrolo[1,2-a][1,4] diazacyclopentadecin-2-yl 3,4-dihydroisoquinoline-2(1H)-carboxylate] | < 1000 nM
